The assay has as its system Staphylococcus aureus. In words: Minimum inhibitory concentration against Staphylococcus aureus. Conditions: read-out: minimum inhibitory concentration (MIC). Type of assay: cell-based.

The structures appear in SMILES notation. ≈ marks a conversion by molar mass, not a printed value.

As to `CCCCCCCCCCCC(=O)OCC(O)CO` (stereo not shown) [glycerol monolaurate], the MIC turned out to be 55 µg/mL (≈ 200 µM).
